How the values were obtained:
Format in all cases: in vivo
barnyardgrass [1] = assay: Test Example 1: herbicidal effects in preemergence treatment under submerged conditions; settings: dose 2.52 g/a
Method in brief: (§1)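 Weed seeds and 2.5-leaf rice seedlings shared each flooded cup of alluvial soil. Dosing, expressed as g per are, was by pouring water-diluted emulsifiable concentrate onto the surface on sowing day. Mortality was graded 0 to 5 after three weeks' growth.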

bulrush [2] = assay: as above; settings: dose 2.52 g/a
Method in brief: as §1

ducksalad [3] = assay: as above; settings: dose 2.52 g/a
Method in brief: as §1

transplanted rice = assay: Test Example 1: preemergence treatment under submerged conditions, effect on crop; settings: dose 2.52 g/a
Method in brief: as §1

barnyardgrass [4] = assay: Test Example 2: herbicidal effects during the vegetation period under submerged conditions; settings: treatment during the vegetation period under submerged conditions; dose 2.52 g/a
Method in brief: (§2)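 Barnyardgrass, bulrush and ducksalad were co-sown in alluvial soil flooded to 4 cm and grown in a greenhouse at 25 to 30° C. At the 1- or 2-leaf stage, water-diluted emulsifiable concentrates went onto the water surface at set doses (g/a). Herbicidal effect was scored three weeks later on a graded scale.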

bulrush [5] = assay: as above; settings: treatment during the vegetation period under submerged conditions; dose 2.52 g/a
Method in brief: as §2

ducksalad [6] = assay: as above; settings: treatment during the vegetation period under submerged conditions; dose 2.52 g/a
Method in brief: as §2

Italian ryegrass [7] = assay: Test Example 3: herbicidal effects in soil treatment; settings: dose 3.2 g/a
Method in brief: (§3)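 Seeds were sown in sterilized diluvial soil and covered with about 1.5 cm of soil. Compounds, formulated as emulsifiable concentrates and diluted with water, were sprayed evenly over the soil surface at set doses in g/a. Herbicidal effect was scored on a rating scale three weeks later.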

barnyardgrass [8] = assay: as above; settings: dose 3.2 g/a
Method in brief: as §3

common chickweed [9] = assay: as above; settings: dose 3.2 g/a
Method in brief: as §3

common lambsquater [10] = assay: as above; settings: dose 3.2 g/a
Method in brief: as §3

common ragweed [11] = assay: as above; settings: dose 3.2 g/a
Method in brief: as §3

giant foxtail [12] = assay: as above; settings: dose 3.2 g/a
Method in brief: as §3

large crabgrass [13] = assay: as above; settings: dose 3.2 g/a
Method in brief: as §3

posumbu knotweed [14] = assay: as above; settings: dose 3.2 g/a
Method in brief: as §3

redroot pigweed [15] = assay: as above; settings: dose 3.2 g/a
Method in brief: as §3

velvetleaf [16] = assay: as above; settings: dose 3.2 g/a
Method in brief: as §3

water foxtail [17] = assay: as above; settings: dose 3.2 g/a
Method in brief: as §3

Italian ryegrass [18] = assay: Test Example 4: herbicidal effect in foliage treatment; settings: dose 3.2 g/a
Method in brief: (§4)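 Seeds were spot-sown in boxes of sterilized diluvial soil and raised in a greenhouse (25 to 30° C) for 14 days before a single foliar application. Compounds were applied as emulsifiable concentrates diluted with water, at predetermined doses in g/a. Injury was graded three weeks post-spray.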

barnyardgrass [19] = assay: as above; settings: dose 3.2 g/a
Method in brief: as §4

beadstraw = assay: as above; settings: dose 3.2 g/a
Method in brief: as §4

common chickweed [20] = assay: as above; settings: dose 3.2 g/a
Method in brief: as §4

common lambsquater [21] = assay: as above; settings: dose 3.2 g/a
Method in brief: as §4

common ragweed [22] = assay: as above; settings: dose 3.2 g/a
Method in brief: as §4

giant foxtail [23] = assay: as above; settings: dose 3.2 g/a
Method in brief: as §4

large crabgrass [24] = assay: as above; settings: dose 3.2 g/a
Method in brief: as §4

posumbu knotweed [25] = assay: as above; settings: dose 3.2 g/a
Method in brief: as §4

redroot pigweed [26] = assay: as above; settings: dose 3.2 g/a
Method in brief: as §4

velvetleaf [27] = assay: as above; settings: dose 3.2 g/a
Method in brief: as §4

water foxtail [28] = assay: as above; settings: dose 3.2 g/a
Method in brief: as §4

[29] = three weeks after the application

CCOC(=O)N(c1ccccc1CN1OCC(C)(C)OC1=O)S(=O)(=O)C(F)(F)F [III-11]
A: barnyardgrass, herbicidal effect (evaluation scale 0-5) (barnyardgrass [1]): 5 (mortality of 90% or above (nearly complete death))
B: bulrush, herbicidal effect (evaluation scale 0-5) (bulrush [2]): 5 (mortality of 90% or above (nearly complete death))
C: ducksalad, herbicidal effect (evaluation scale 0-5) (ducksalad [3]): 5 (mortality of 90% or above (nearly complete death))
a: transplanted rice, effect on crop (evaluation scale 0-5) (transplanted rice): 0 (mortality of less than 5% (almost ineffective))
A: barnyardgrass, herbicidal effect (evaluation scale 0-5) (barnyardgrass [4]): 5 (mortality of 90% or above (nearly complete death))
B: bulrush, herbicidal effect (evaluation scale 0-5) (bulrush [5]): 5 (mortality of 90% or above (nearly complete death))
C: ducksalad, herbicidal effect (evaluation scale 0-5) (ducksalad [6]): 5 (mortality of 90% or above (nearly complete death))
herbicidal effect, H: Italian ryegrass (Italian ryegrass [7]): 4 (mortality of at least 70% and less than 90%)
herbicidal effect, A: barnyardgrass (barnyardgrass [8]): 5 (mortality of 90% or above (nearly complete death))
herbicidal effect, N: common chickweed (common chickweed [9]): 5 (mortality of 90% or above (nearly complete death))
herbicidal effect, L: common lambsquater (common lambsquater [10]): 5 (mortality of 90% or above (nearly complete death))
herbicidal effect, J: common ragweed (common ragweed [11]): 5 (mortality of 90% or above (nearly complete death))
herbicidal effect, E: giant foxtail (giant foxtail [12]): 5 (mortality of 90% or above (nearly complete death))
herbicidal effect, D: large crabgrass (large crabgrass [13]): 5 (mortality of 90% or above (nearly complete death))
herbicidal effect, M: posumbu knotweed (posumbu knotweed [14]): 5 (mortality of 90% or above (nearly complete death))
herbicidal effect, K: redroot pigweed (redroot pigweed [15]): 3 (mortality of at least 40% and less than 70%)
herbicidal effect, I: velvetleaf (velvetleaf [16]): 4 (mortality of at least 70% and less than 90%)
herbicidal effect, G: water foxtail (water foxtail [17]): 5 (mortality of 90% or above (nearly complete death))
H: Italian ryegrass, herbicidal effect (Italian ryegrass [18]; [29]): 3 (mortality of at least 40% and less than 70%)
A: barnyardgrass, herbicidal effect (barnyardgrass [19]; [29]): 5 (mortality of 90% or above (nearly complete death))
O: beadstraw, herbicidal effect (beadstraw; [29]): 5 (mortality of 90% or above (nearly complete death))
N: common chickweed, herbicidal effect (common chickweed [20]; [29]): 5 (mortality of 90% or above (nearly complete death))
L: common lambsquater, herbicidal effect (common lambsquater [21]; [29]): 4 (mortality of at least 70% and less than 90%)
J: common ragweed, herbicidal effect (common ragweed [22]; [29]): 4 (mortality of at least 70% and less than 90%)
E: giant foxtail, herbicidal effect (giant foxtail [23]; [29]): 4 (mortality of at least 70% and less than 90%)
D: large crabgrass, herbicidal effect (large crabgrass [24]; [29]): 0 (mortality of less than 5% (almost ineffective))
M: posumbu knotweed, herbicidal effect (posumbu knotweed [25]; [29]): 4 (mortality of at least 70% and less than 90%)
K: redroot pigweed, herbicidal effect (redroot pigweed [26]; [29]): 2 (mortality of at least 20% and less than 40%)
I: velvetleaf, herbicidal effect (velvetleaf [27]; [29]): 4 (mortality of at least 70% and less than 90%)
G: water foxtail, herbicidal effect (water foxtail [28]; [29]): 5 (mortality of 90% or above (nearly complete death))

CCC1(C)CC(=O)N(Cc2ccccc2N(C(=O)OCC(C)C)S(=O)(=O)C(F)(F)F)CO1 (stereo not drawn) [II-43]
A: barnyardgrass, herbicidal effect (evaluation scale 0-5) (barnyardgrass [1]): 5 (mortality of 90% or above (nearly complete death))
B: bulrush, herbicidal effect (evaluation scale 0-5) (bulrush [2]): 5 (mortality of 90% or above (nearly complete death))
C: ducksalad, herbicidal effect (evaluation scale 0-5) (ducksalad [3]): 5 (mortality of 90% or above (nearly complete death))
a: transplanted rice, effect on crop (evaluation scale 0-5) (transplanted rice): 0 (mortality of less than 5% (almost ineffective))
A: barnyardgrass, herbicidal effect (evaluation scale 0-5) (barnyardgrass [4]): 5 (mortality of 90% or above (nearly complete death))
B: bulrush, herbicidal effect (evaluation scale 0-5) (bulrush [5]): 5 (mortality of 90% or above (nearly complete death))
C: ducksalad, herbicidal effect (evaluation scale 0-5) (ducksalad [6]): 5 (mortality of 90% or above (nearly complete death))
H: Italian ryegrass, herbicidal effect (evaluation scale 0-5) (Italian ryegrass [7]): 5 (mortality of 90% or above (nearly complete death))
A: barnyardgrass, herbicidal effect (evaluation scale 0-5) (barnyardgrass [8]): 4 (mortality of at least 70% and less than 90%)
N: common chickweed, herbicidal effect (evaluation scale 0-5) (common chickweed [9]): 5 (mortality of 90% or above (nearly complete death))
L: common lambsquater, herbicidal effect (evaluation scale 0-5) (common lambsquater [10]): 5 (mortality of 90% or above (nearly complete death))
J: common ragweed, herbicidal effect (evaluation scale 0-5) (common ragweed [11]): 3 (mortality of at least 40% and less than 70%)
E: giant foxtail, herbicidal effect (evaluation scale 0-5) (giant foxtail [12]): 2 (mortality of at least 20% and less than 40%)
D: large crabgrass, herbicidal effect (evaluation scale 0-5) (large crabgrass [13]): 3 (mortality of at least 40% and less than 70%)
M: posumbu knotweed, herbicidal effect (evaluation scale 0-5) (posumbu knotweed [14]): 4 (mortality of at least 70% and less than 90%)
K: redroot pigweed, herbicidal effect (evaluation scale 0-5) (redroot pigweed [15]): 2 (mortality of at least 20% and less than 40%)
I: velvetleaf, herbicidal effect (evaluation scale 0-5) (velvetleaf [16]): 5 (mortality of 90% or above (nearly complete death))
G: water foxtail, herbicidal effect (evaluation scale 0-5) (water foxtail [17]): 5 (mortality of 90% or above (nearly complete death))
H: Italian ryegrass, herbicidal effect (Italian ryegrass [18]; three weeks after application): 4 (mortality of at least 70% and less than 90%)
A: barnyardgrass, herbicidal effect (barnyardgrass [19]; three weeks after application): 5 (mortality of 90% or above (nearly complete death))
O: beadstraw, herbicidal effect (beadstraw; three weeks after application): 4 (mortality of at least 70% and less than 90%)
N: common chickweed, herbicidal effect (common chickweed [20]; three weeks after application): 3 (mortality of at least 40% and less than 70%)
L: common lambsquater, herbicidal effect (common lambsquater [21]; three weeks after application): 2 (mortality of at least 20% and less than 40%)
J: common ragweed, herbicidal effect (common ragweed [22]; three weeks after application): 3 (mortality of at least 40% and less than 70%)
E: giant foxtail, herbicidal effect (giant foxtail [23]; three weeks after application): 4 (mortality of at least 70% and less than 90%)
D: large crabgrass, herbicidal effect (large crabgrass [24]; three weeks after application): 1 (mortality of at least 5% and less than 20%)
M: posumbu knotweed, herbicidal effect (posumbu knotweed [25]; three weeks after application): 0 (mortality of less than 5% (almost ineffective))
K: redroot pigweed, herbicidal effect (redroot pigweed [26]; three weeks after application): 0 (mortality of less than 5% (almost ineffective))
I: velvetleaf, herbicidal effect (velvetleaf [27]; three weeks after application): 5 (mortality of 90% or above (nearly complete death))
G: water foxtail, herbicidal effect (water foxtail [28]; three weeks after application): 5 (mortality of 90% or above (nearly complete death))
